Row | Compound | solubility (mole fraction) (in 1,4-dioxane, 298.15 K) | solubility (mole fraction) (in 1,4-dioxane, 303.15 K) | solubility (mole fraction) (in 1,4-dioxane, 308.15 K) | solubility (mole fraction) (in 1,4-dioxane, 313.15 K) | solubility (mole fraction) (in 1,4-dioxane, 318.15 K) | solubility (mole fraction) (in DMF, 298.15 K) | solubility (mole fraction) (in DMF, 303.15 K) | solubility (mole fraction) (in DMF, 308.15 K) | solubility (mole fraction) (in DMF, 313.15 K) | solubility (mole fraction) (in DMF, 318.15 K)
1 | O=C(/C=C/c1ccc(-c2cccc([N+](=O)[O-])c2)o1)c1cccc([N+](=O)[O-])c1 | 0.00596 | 0.00601 | 0.00602 | 0.00605 | 0.00608 | 0.00604 | 0.0061 | 0.00614 | 0.0062 | 0.0062
2 | O=C(/C=C/c1ccc(-c2cccc([N+](=O)[O-])c2)o1)c1ccccc1 | 0.00553 | 0.0056 | 0.00565 | 0.00571 | 0.00573 | 0.00983 | 0.0099 | 0.00998 | 0.0101 | 0.0101
3 | O=C(/C=C/c1ccc(-c2cccc([N+](=O)[O-])c2)o1)c1ccc2ccc(=O)oc2c1 | 0.00617 | 0.00623 | 0.00622 | 0.00624 | 0.00628 | 0.00696 | 0.007 | 0.0071 | 0.0072 | 0.00721
4 | O=C(/C=C/c1ccc(-c2cccc([N+](=O)[O-])c2)o1)CO | 0.00705 | 0.00707 | 0.0071 | 0.00711 | 0.00714 | 0.0094 | 0.00945 | 0.0095 | 0.0095 | 0.00959
5 | O=C(/C=C/c1ccc(-c2cccc([N+](=O)[O-])c2)o1)c1ccc([N+](=O)[O-])cc1 | 0.00229 | 0.00232 | 0.00239 | 0.00241 | 0.00245 | 0.00237 | 0.0024 | 0.00244 | 0.00245 | 0.00248
6 | COc1ccc(C(=O)/C=C/c2ccc(-c3cccc([N+](=O)[O-])c3)o2)cc1 | 0.00732 | 0.00733 | 0.00737 | 0.00742 | 0.00744 | 0.0112 | 0.0112 | 0.0113 | 0.0113 | 0.0114

Second part, the compound after the results:

Row | solubility (mole fraction) (in 1,4-dioxane, 298.15 K) | solubility (mole fraction) (in 1,4-dioxane, 303.15 K) | solubility (mole fraction) (in 1,4-dioxane, 308.15 K) | solubility (mole fraction) (in 1,4-dioxane, 313.15 K) | solubility (mole fraction) (in 1,4-dioxane, 318.15 K) | solubility (mole fraction) (in DMF, 298.15 K) | solubility (mole fraction) (in DMF, 303.15 K) | solubility (mole fraction) (in DMF, 308.15 K) | solubility (mole fraction) (in DMF, 313.15 K) | solubility (mole fraction) (in DMF, 318.15 K) | Compound
7 | 0.00573 | 0.0058 | 0.00581 | 0.00591 | 0.00592 | 0.00665 | 0.0067 | 0.00675 | 0.0068 | 0.00692 | O=C(/C=C/c1ccc(-c2cccc([N+](=O)[O-])c2)o1)c1ccc(O)cc1
8 | 0.00489 | 0.00491 | 0.00495 | 0.00501 | 0.00501 | 0.00705 | 0.0071 | 0.00714 | 0.00722 | 0.00726 | O=C(/C=C/c1ccc(-c2cccc([N+](=O)[O-])c2)o1)c1ccc(Br)cc1
9 | 0.00271 | 0.00272 | 0.00277 | 0.00282 | 0.00284 | 0.0045 | 0.0046 | 0.00468 | 0.0047 | 0.0048 | O=C(/C=C/c1ccc(-c2cccc([N+](=O)[O-])c2)o1)c1ccc(Cl)cc1
10 | 0.00245 | 0.00248 | 0.0025 | 0.00252 | 0.00255 | 0.00264 | 0.00264 | 0.00264 | 0.00264 | 0.00264 | Nc1ccc(C(=O)/C=C/c2ccc(-c3cccc([N+](=O)[O-])c3)o2)cc1
